Data reported in patent EP4722207A1, “OXOISOINDOLINYL-SUBSTITUTED TETRAHYDROPYRIMIDINEDIONE DERIVATIVE AND USE THEREOF” (Gluetacs Therapeutics (Shanghai) Co., Ltd., priority 2023, dated 2024).

Key:
Assay type in all cases: cell-based
Conditions in all cases: compounds at 50 nM and 500 nM, 24 hours
[1] = target: T1, CK1α (Homo sapiens, UniProt P48729+Q96SW2); assay: Western-blot assay, substrate protein degradation in hPBMCs: CK1α
T1 construct: effects of the compounds of the present disclosure on the expression of target proteins in cells; endogenous in cells; host or cells: human PBMCs (hPBMCs)

[2] = target: T2, GSPT1 (Homo sapiens, UniProt P15170+Q96SW2); assay: Western-blot assay, substrate protein degradation in hPBMCs: GSPT1
T2 construct: effects of the compounds of the present disclosure on the expression of target proteins in cells; endogenous in cells; host or cells: human PBMCs (hPBMCs)

[3] = target: T3, IKZF2 (Homo sapiens, UniProt Q96SW2+Q9UKS7); assay: Western-blot assay, substrate protein degradation in hPBMCs: IKZF2
T3 construct: effects of the compounds of the present disclosure on the expression of target proteins in cells; endogenous in cells; host or cells: human PBMCs (hPBMCs)

[4] = target: T4, WEE1 (Homo sapiens, UniProt P30291+Q96SW2); assay: Western-blot assay, substrate protein degradation in hPBMCs: WEE1
T4 construct: effects of the compounds of the present disclosure on the expression of target proteins in cells; endogenous in cells; host or cells: human PBMCs (hPBMCs)

[5] = target: T5, IKZF1 (Homo sapiens, UniProt Q13422+Q96SW2); assay: Western-blot assay, substrate protein degradation in hPBMCs: IKZF1
T5 construct: effects of the compounds of the present disclosure on the expression of target proteins in cells; endogenous in cells; host or cells: human PBMCs (hPBMCs)

[6] = target: T6, IKZF3 (Homo sapiens, UniProt Q96SW2+Q9UKT9); assay: Western-blot assay, substrate protein degradation in hPBMCs: IKZF3
T6 construct: effects of the compounds of the present disclosure on the expression of target proteins in cells; endogenous in cells; host or cells: human PBMCs (hPBMCs)
T6 sequence (Q9UKT9 whole entry): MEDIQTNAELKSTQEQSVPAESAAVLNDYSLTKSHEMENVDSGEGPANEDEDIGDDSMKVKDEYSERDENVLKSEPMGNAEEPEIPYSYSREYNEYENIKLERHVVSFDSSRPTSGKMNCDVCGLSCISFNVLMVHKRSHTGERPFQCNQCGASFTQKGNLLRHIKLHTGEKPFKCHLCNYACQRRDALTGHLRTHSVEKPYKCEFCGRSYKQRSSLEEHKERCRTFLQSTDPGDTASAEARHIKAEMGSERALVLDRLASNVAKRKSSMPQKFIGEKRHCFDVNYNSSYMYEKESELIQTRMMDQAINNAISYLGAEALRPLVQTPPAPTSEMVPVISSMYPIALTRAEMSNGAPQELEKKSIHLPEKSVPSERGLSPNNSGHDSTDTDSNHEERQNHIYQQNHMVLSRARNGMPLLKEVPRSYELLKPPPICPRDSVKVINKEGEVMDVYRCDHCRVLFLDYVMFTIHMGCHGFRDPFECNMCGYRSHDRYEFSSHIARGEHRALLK
T6 sequence (Q96SW2 whole entry): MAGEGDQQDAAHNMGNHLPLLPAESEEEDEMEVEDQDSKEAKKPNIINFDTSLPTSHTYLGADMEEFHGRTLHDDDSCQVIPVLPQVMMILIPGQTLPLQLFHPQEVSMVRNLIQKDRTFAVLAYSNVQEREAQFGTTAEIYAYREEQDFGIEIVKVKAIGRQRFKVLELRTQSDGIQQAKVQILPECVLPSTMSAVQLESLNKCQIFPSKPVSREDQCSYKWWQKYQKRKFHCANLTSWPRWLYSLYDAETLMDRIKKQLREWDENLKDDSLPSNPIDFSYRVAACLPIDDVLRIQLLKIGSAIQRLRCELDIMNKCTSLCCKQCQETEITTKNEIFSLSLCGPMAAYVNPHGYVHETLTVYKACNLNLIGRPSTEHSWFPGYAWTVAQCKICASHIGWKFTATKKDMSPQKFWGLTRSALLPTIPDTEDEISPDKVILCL
T6 sequence (Q16531 whole entry partner): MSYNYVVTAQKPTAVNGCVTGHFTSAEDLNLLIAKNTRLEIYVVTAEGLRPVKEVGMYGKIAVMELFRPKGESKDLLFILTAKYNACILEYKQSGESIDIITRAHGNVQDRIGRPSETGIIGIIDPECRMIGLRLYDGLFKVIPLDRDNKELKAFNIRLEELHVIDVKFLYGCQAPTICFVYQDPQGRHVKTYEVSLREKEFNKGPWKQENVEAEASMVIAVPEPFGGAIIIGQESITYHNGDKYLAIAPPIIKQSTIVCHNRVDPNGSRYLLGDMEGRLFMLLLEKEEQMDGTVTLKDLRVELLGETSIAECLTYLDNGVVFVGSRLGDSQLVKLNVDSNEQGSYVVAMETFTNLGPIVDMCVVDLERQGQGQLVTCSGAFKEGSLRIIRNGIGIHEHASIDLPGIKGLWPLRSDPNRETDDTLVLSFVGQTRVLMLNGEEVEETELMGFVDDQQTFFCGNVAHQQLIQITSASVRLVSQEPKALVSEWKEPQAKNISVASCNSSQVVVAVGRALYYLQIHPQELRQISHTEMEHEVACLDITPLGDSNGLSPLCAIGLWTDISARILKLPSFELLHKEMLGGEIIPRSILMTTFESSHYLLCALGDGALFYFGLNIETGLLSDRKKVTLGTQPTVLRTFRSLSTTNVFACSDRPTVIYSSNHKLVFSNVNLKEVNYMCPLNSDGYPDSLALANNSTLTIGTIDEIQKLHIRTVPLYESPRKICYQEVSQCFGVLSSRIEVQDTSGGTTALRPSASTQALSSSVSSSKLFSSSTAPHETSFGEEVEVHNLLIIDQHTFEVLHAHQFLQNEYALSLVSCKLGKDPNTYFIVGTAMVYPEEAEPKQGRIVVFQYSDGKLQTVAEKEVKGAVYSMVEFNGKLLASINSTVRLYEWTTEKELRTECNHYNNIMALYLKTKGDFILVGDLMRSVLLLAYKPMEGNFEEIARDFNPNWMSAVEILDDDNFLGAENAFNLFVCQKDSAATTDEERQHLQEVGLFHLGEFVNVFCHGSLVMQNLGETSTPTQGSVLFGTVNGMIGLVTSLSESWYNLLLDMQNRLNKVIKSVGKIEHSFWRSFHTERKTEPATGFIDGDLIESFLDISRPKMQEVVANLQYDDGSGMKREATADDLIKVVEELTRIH

T2 sequence (P15170 whole entry): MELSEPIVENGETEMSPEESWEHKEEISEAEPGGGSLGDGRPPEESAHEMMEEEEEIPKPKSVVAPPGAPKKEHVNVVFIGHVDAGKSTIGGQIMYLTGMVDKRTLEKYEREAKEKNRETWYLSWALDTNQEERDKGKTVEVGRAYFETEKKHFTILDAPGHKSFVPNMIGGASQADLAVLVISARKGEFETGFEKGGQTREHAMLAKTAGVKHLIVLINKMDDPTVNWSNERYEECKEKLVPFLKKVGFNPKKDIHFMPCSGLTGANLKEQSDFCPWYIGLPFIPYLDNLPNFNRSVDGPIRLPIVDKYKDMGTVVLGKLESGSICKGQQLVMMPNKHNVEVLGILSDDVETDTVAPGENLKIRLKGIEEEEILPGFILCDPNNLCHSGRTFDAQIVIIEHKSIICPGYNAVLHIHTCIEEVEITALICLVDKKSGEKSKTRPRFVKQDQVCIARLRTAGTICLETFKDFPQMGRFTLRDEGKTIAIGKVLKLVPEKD
T2 sequence (Q96SW2 whole entry): as the sequence (Q96SW2 whole entry) above
T2 sequence (Q16531 whole entry partner): as the sequence (Q16531 whole entry partner) above
T1 sequence (P48729 whole entry): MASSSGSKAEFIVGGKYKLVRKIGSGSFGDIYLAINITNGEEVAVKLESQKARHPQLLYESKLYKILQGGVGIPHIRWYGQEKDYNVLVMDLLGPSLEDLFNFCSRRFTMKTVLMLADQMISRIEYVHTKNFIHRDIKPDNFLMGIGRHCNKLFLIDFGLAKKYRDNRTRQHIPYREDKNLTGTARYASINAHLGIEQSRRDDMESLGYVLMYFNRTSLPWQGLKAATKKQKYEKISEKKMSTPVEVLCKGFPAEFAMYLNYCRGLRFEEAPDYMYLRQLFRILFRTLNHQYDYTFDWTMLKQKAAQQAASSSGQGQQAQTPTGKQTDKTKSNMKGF
T1 sequence (Q96SW2 whole entry): as the sequence (Q96SW2 whole entry) above
T1 sequence (Q16531 whole entry partner): as the sequence (Q16531 whole entry partner) above
T3 sequence (Q9UKS7 whole entry): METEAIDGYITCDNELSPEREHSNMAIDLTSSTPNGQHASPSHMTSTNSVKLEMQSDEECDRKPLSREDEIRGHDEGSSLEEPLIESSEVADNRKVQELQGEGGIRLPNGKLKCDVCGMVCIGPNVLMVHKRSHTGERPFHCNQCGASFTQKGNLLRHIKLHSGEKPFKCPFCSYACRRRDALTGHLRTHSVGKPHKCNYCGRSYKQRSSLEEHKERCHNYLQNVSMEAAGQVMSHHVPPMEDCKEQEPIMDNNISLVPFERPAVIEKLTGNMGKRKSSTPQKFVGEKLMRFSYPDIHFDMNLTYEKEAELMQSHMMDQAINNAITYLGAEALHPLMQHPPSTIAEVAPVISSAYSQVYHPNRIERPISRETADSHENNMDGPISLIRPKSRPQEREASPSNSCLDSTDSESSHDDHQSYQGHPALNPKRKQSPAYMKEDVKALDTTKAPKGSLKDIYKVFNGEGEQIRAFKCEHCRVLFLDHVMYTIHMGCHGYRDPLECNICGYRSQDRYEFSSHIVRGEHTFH
T3 sequence (Q96SW2 whole entry): as the sequence (Q96SW2 whole entry) above
T3 sequence (Q16531 whole entry partner): as the sequence (Q16531 whole entry partner) above
T4 sequence (P30291 whole entry): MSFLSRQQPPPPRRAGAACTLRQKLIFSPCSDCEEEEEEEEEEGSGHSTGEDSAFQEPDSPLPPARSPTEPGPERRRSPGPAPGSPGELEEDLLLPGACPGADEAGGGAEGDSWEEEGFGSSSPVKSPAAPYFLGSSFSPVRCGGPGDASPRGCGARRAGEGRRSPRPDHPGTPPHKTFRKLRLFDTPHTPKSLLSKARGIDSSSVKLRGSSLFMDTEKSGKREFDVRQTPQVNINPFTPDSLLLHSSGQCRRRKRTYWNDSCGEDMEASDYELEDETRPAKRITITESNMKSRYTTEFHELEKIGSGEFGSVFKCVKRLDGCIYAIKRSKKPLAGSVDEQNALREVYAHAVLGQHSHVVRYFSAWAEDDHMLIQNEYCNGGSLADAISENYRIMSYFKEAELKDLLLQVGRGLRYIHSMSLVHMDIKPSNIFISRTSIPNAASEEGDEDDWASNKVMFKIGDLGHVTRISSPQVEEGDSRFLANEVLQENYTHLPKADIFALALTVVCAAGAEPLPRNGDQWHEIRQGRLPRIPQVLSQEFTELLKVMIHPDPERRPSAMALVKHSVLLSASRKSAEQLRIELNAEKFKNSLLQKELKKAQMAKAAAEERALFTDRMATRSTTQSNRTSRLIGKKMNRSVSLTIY
T4 sequence (Q96SW2 whole entry): as the sequence (Q96SW2 whole entry) above
T4 sequence (Q16531 whole entry partner): as the sequence (Q16531 whole entry partner) above

Row | Structure (SMILES) | CK1α substrate protein remaining % [1] | GSPT1 substrate protein remaining % [2] | IKZF2 substrate protein remaining % [3] | WEE1 substrate protein remaining % [4] | IKZF1 substrate protein remaining % [5] | IKZF3 substrate protein remaining % [6]
1 | CC1CN(Cc2ccc3c(c2)CN(N2CCC(=O)NC2=O)C3=O)CC(C)N1C(c1ccccc1)c1ccccc1 (stereo not drawn) [GT-06431, 1-(5-((4-benzhydryl-3,5-dimethylpiperazin-1-yl)methyl)-1-oxoisoindolin-2-yl)dihydropyrimidine-2,4(1H,3H)-dione] | B ("B" is defined as 80%< substrate protein remaining %≤ 100%) | A ("A" is defined as 0% ≤ substrate protein remaining % ≤ 80%) | A ("A" is defined as 0% ≤ substrate protein remaining % ≤ 80%) | A ("A" is defined as 0% ≤ substrate protein remaining % ≤ 80%) | A ("A" is defined as 0% ≤ substrate protein remaining % ≤ 80%) | B ("B" is defined as 80%< substrate protein remaining %≤ 100%)
2 | O=C1CCN(N2C(=O)c3ccc(CN4CCN(Cc5ccccc5-c5ccc(Cl)cc5)CC4)cc3C2=O)C(=O)N1 [GT-06432, 5-((4-((4'-chloro-[1,1'-biphenyl]-2-yl)methyl)piperazin-1-yl)methyl)-2-(2,4-dioxotetrahydropyrimidin-1(2H)-yl)isoindoline-1,3-dione] | B ("B" is defined as 80%< substrate protein remaining %≤ 100%) | A ("A" is defined as 0% ≤ substrate protein remaining % ≤ 80%) | B ("B" is defined as 80%< substrate protein remaining %≤ 100%) | A ("A" is defined as 0% ≤ substrate protein remaining % ≤ 80%) | A ("A" is defined as 0% ≤ substrate protein remaining % ≤ 80%) | B ("B" is defined as 80%< substrate protein remaining %≤ 100%)
3 | O=C1CCN(N2Cc3cc(CN4CCN(Cc5ccccc5-c5ccc(Cl)cc5)CC4)ccc3C2=O)C(=O)N1 [GT-06433, 1-(5-((4-((4'-chloro-[1,1'-biphenyl]-2-yl)methyl)piperazin-1-yl)methyl)-1-oxoisoindolin-2-yl)dihydropyrimidine-2,4(1H,3H)-dione] | B ("B" is defined as 80%< substrate protein remaining %≤ 100%) | A ("A" is defined as 0% ≤ substrate protein remaining % ≤ 80%) | A ("A" is defined as 0% ≤ substrate protein remaining % ≤ 80%) | A ("A" is defined as 0% ≤ substrate protein remaining % ≤ 80%) | A ("A" is defined as 0% ≤ substrate protein remaining % ≤ 80%) | A ("A" is defined as 0% ≤ substrate protein remaining % ≤ 80%)
4 | Cc1ccsc1C1=CCN(Cc2ccc3c(c2)C(=O)N(N2CCC(=O)NC2=O)C3=O)CC1 [GT-06434, 2-(2,4-dioxotetrahydropyrimidin-1(2H)-yl)-5-((4-(3-methylthiophen-2-yl)-3,6-dihydropyridin-1(2H)-yl)methyl)isoindoline-1,3-dione] | B ("B" is defined as 80%< substrate protein remaining %≤ 100%) | A ("A" is defined as 0% ≤ substrate protein remaining % ≤ 80%) | A ("A" is defined as 0% ≤ substrate protein remaining % ≤ 80%) | A ("A" is defined as 0% ≤ substrate protein remaining % ≤ 80%) | B ("B" is defined as 80%< substrate protein remaining %≤ 100%) | A ("A" is defined as 0% ≤ substrate protein remaining % ≤ 80%)
5 | O=C1CCN(N2C(=O)c3ccc(CN4CC=C(c5ccsc5)CC4)cc3C2=O)C(=O)N1 [GT-06435, 2-(2,4-dioxotetrahydropyrimidin-1(2H)-yl)-5-((4-(thiophen-3-yl)-3,6-dihydropyridin-1(2H)-yl)methyl)isoindoline-1,3-dione] | B ("B" is defined as 80%< substrate protein remaining %≤ 100%) | A ("A" is defined as 0% ≤ substrate protein remaining % ≤ 80%) | A ("A" is defined as 0% ≤ substrate protein remaining % ≤ 80%) | A ("A" is defined as 0% ≤ substrate protein remaining % ≤ 80%) | B ("B" is defined as 80%< substrate protein remaining %≤ 100%) | A ("A" is defined as 0% ≤ substrate protein remaining % ≤ 80%)
6 | C[C@@H]1CN(C(c2ccccc2)c2ccccc2)CCN1Cc1ccc2c(c1)CN(N1CCC(=O)NC1=O)C2=O [GT-06448, (R)-1-(5-((4-benzhydryl-2-methylpiperazin-1-yl)methyl)-1-oxoisoindolin-2-yl)dihydropyrimidine-2,4(1H,3H)-dione] | B ("B" is defined as 80%< substrate protein remaining %≤ 100%) | A ("A" is defined as 0% ≤ substrate protein remaining % ≤ 80%) | A ("A" is defined as 0% ≤ substrate protein remaining % ≤ 80%) | B ("B" is defined as 80%< substrate protein remaining %≤ 100%) | B ("B" is defined as 80%< substrate protein remaining %≤ 100%) | A ("A" is defined as 0% ≤ substrate protein remaining % ≤ 80%)
7 | C[C@@H]1CN(C(c2ccccc2)c2ccccc2)CCN1Cc1ccc2c(c1)C(=O)N(N1CCC(=O)NC1=O)C2=O [GT-06449, (R)-5-((4-benzhydryl-2-methylpiperazin-1-yl)methyl)-2-(2,4-dioxotetrahydropyrimidin-1(2H)-yl)isoindoline-1,3-dione] | B ("B" is defined as 80%< substrate protein remaining %≤ 100%) | A ("A" is defined as 0% ≤ substrate protein remaining % ≤ 80%) | A ("A" is defined as 0% ≤ substrate protein remaining % ≤ 80%) | B ("B" is defined as 80%< substrate protein remaining %≤ 100%) | B ("B" is defined as 80%< substrate protein remaining %≤ 100%) | A ("A" is defined as 0% ≤ substrate protein remaining % ≤ 80%)
8 | O=C1CCN(N2C(=O)c3ccc(CN4CC5CCC4CN5C(c4ccccc4)c4ccccc4)cc3C2=O)C(=O)N1 (stereo not drawn) [GT-06451, 5-((5-benzhydryl-2,5-diazabicyclo[2.2.2]octan-2-yl)methyl)-2-(2,4-dioxotetrahydropyrimidin-1(2H)-yl)isoindoline-1,3-dione] | B ("B" is defined as 80%< substrate protein remaining %≤ 100%) | B ("B" is defined as 80%< substrate protein remaining %≤ 100%) | B ("B" is defined as 80%< substrate protein remaining %≤ 100%) | A ("A" is defined as 0% ≤ substrate protein remaining % ≤ 80%) | B ("B" is defined as 80%< substrate protein remaining %≤ 100%) | B ("B" is defined as 80%< substrate protein remaining %≤ 100%)
9 | O=C1CCN(N2Cc3cc(CN4CC5CCC(C4)N5C(c4ccccc4)c4ccccc4)ccc3C2=O)C(=O)N1 [GT-06452, 1-(5-((8-benzhydryl-3,8-diazabicyclo[3.2.1]octan-3-yl)methyl)-1-oxoisoindolin-2-yl)dihydropyrimidine-2,4(1H,3H)-dione] | B ("B" is defined as 80%< substrate protein remaining %≤ 100%) | B ("B" is defined as 80%< substrate protein remaining %≤ 100%) | B ("B" is defined as 80%< substrate protein remaining %≤ 100%) | A ("A" is defined as 0% ≤ substrate protein remaining % ≤ 80%) | B ("B" is defined as 80%< substrate protein remaining %≤ 100%) | B ("B" is defined as 80%< substrate protein remaining %≤ 100%)
10 | O=C1CCN(N2C(=O)c3ccc(CN4CC5CCC(C4)N5C(c4ccccc4)c4ccccc4)cc3C2=O)C(=O)N1 [GT-06453, 5-((8-benzhydryl-3,8-diazabicyclo[3.2.1]octan-3-yl)methyl)-2-(2,4-dioxotetrahydropyrimidin-1(2H)-yl)isoindoline-1,3-dione] | B ("B" is defined as 80%< substrate protein remaining %≤ 100%) | B ("B" is defined as 80%< substrate protein remaining %≤ 100%) | A ("A" is defined as 0% ≤ substrate protein remaining % ≤ 80%) | B ("B" is defined as 80%< substrate protein remaining %≤ 100%) | B ("B" is defined as 80%< substrate protein remaining %≤ 100%) | B ("B" is defined as 80%< substrate protein remaining %≤ 100%)
